Each block holds one compound with its values, some of them ahead of it. Calls of active or inactive are those of the source. No cut-off for these calls is given here.
Columns and labels:
[1] = Unbound AUC (0 to 6 hrs) in BALB/c mouse at 5 mg/kg, po or 5 mg/kg, iv measured for 24 hrs by LC-MS/MS analysis; type: ADME, organism-based; conditions: in vivo
[2] = Fraction unbound in BALB/c mouse blood at 5 mg/kg, po or 5 mg/kg, iv measured for 24 hrs by LC-MS/MS analysis; type: ADME, organism-based
[3] = AUC (0 to 6 hrs) in BALB/c mouse at 5 mg/kg, po measured for 24 hrs by LC-ESI-MS/MS analysis; type: ADME, organism-based; set-up: time 24 hrs, dose 5 mg/kg, route po; conditions: in vivo
[4] = species on record: Mus musculus; conditions: dose 50.0 mg/kg, route po
[5] = Unbound AUC (0 to 6 hrs) in BALB/c mouse at 5 mg/kg, po or 1 mg/kg, iv measured for 24 hrs by LC-MS/MS analysis; type: ADME, organism-based; conditions: in vivo
[6] = Reversal of doxorubicin resistance in human doxorubicin resistant CH1 cells assessed as doxorubicin GI50 incubated for 96 hrs by resazurin dye based celltiter-blue cell viability assay (reference value: 310 nM); type: functional
[7] = Stability in pooled mouse plasma assessed as drug degradation at 1 uM; type: ADME, cell-free
[8] = system: IGROV-1; test: Antiproliferative activity against human IGROV-1 cells assessed as cell growth inhibition measured after 96 hrs by resazurin dye based celltiter-blue viability assay; type: functional
[9] = system: OVCAR-3; test: Antiproliferative activity against human OVCAR-3 cells assessed as cell growth inhibition measured after 96 hrs by resazurin dye based celltiter-blue viability assay; type: functional
[10] = system: OVCAR-8; test: Antiproliferative activity against human OVCAR-8 cells assessed as cell growth inhibition measured after 96 hrs by resazurin dye based celltiter-blue viability assay; type: functional
[11] = physchem; conditions: buffer, pH 7.4
[12] = system: OVCAR-5; test: Antiproliferative activity against human OVCAR-5 cells assessed as cell growth inhibition measured after 96 hrs by resazurin dye based celltiter-blue viability assay; type: functional
[13] = system: Caov-3 cell line; test: Antiproliferative activity against human Caov-3 cells assessed as cell growth inhibition measured after 96 hrs by resazurin dye based celltiter-blue viability assay; type: functional
[14] = system: PA-1; test: Antiproliferative activity against human PA-1 cells assessed as cell growth inhibition measured after 96 hrs by resazurin dye based celltiter-blue viability assay; type: functional
[15] = system: RMG-I; test: Antiproliferative activity against human RMG-I cell line assessed as cell growth inhibition measured after 96 hrs by resazurin dye based celltiter-blue viability assay; type: functional
[16] = system: CH1; test: Antiproliferative activity against human CH1 cells assessed as cell growth inhibition measured after 96 hrs by resazurin dye based celltiter-blue viability assay; type: functional

fAUC [1]: 0.02 µM·h
fraction unbound at 24 h [2]: 0.005
AUC [3]: 3.9 µM·h
Structure (SMILES): CCN1CCN(Cc2ccc3cc(C(=O)Nc4cc(NC(=O)c5ccc6c(c5)OCCO6)ccc4Cl)ccc3n2)CC1

Structure (SMILES): CCN1CCN(Cc2ccc3cc(C(=O)Nc4cc(NC(=O)c5ccc6c(c5)OCCO6)ccc4F)ccc3n2)CC1
inhibition [4]: Active

fAUC [5]: 0.026 µM·h
Structure (SMILES): CC(C)N1CCN(Cc2ccc3cc(C(=O)Nc4cc(NC(=O)c5ccc6c(c5)OCCO6)ccc4Cl)ccc3n2)CC1

fAUC [1]: 0.012 µM·h
Structure (SMILES): Cc1ccc(NC(=O)c2ccc3c(c2)OCCO3)cc1NC(=O)c1ccc2nc(OCCN3CCCCC3)ccc2c1

Structure (SMILES): COc1ccc(CCN(C)CCCC(C#N)(c2ccc(OC)c(OC)c2)C(C)C)cc1OC (configuration not stated)
GI50 [6]: 1.9 nM

Stability [7]: Stable
GI50 [9]: 50.1 nM
GI50 [10]: 50.1 nM
logD [11]: 2.1
GI50 [12]: 50.1 nM
Structure (SMILES): Cc1ccc(NC(=O)c2ccc3c(c2)OCCO3)cc1NC(=O)c1ccc2nc(OCCN3CCCC3)ccc2c1
GI50 [8]: 50.1 nM
GI50 [13]: 50.1 nM
GI50 [14]: 50.1 nM
GI50 [15]: 50.1 nM
GI50 [16]: 50.1 nM

Source: ChEMBL document CHEMBL5352500, “HSF1 Pathway Inhibitor Clinical Candidate (CCT361814/NXP800) Developed from a Phenotypic Screen as a Potential Treatment for Refractory Ovarian Cancer and Other Malignancies” (J Med Chem, 2023)
